From patent publication US12441727B2, “Tricyclic compounds as inhibitors of KRAS” (Incyte Corporation, priority 2021, dated 2025)
Read-outs that look alike come from different tables or passages of the source.

How the values were obtained:
[1] = Human whole blood stability; format: in vitro ADME; settings: percent remaining at 4 hr, 1 μM, 37° C.
Method: The whole blood stability of the exemplified compounds was determined by LC-MS/MS. The 96-Well Flexi-Tier™ Block (Analytical Sales & Services, Inc, Flanders, NJ) is used for the incubation plate containing 1.0 mL glass vials with 0.5 mL of blood per vial (pooled gender, human whole blood sourced from BIOIVT, Hicksville, NY or similar). Blood is pre-warmed in water bath to 37° C. for 30 minutes. 96-deep well analysis plate is prepared with the addition of 100 μL ultrapure water/well. 50 μL chilled ultrapure water/well is added to 96-deep well sample collection plate and covered with a sealing mat. 1 μL of 0.5 mM compound working solution (DMSO:water) is added to the blood in incubation plate to reach final concentrations of 1 μM, mixed by pipetting thoroughly and 50 μL is transferred 50 into the T=0 wells of the sample collection plate. Blood is allowed to sit in the water for 2 minutes and then 400 μL stop solution/well is added (acetonitrile containing an internal standard). The incubation plate is placed in the Incu-Shaker CO2 Mini incubator (Benchmark Scientific, Sayreville, NJ) at 37° C. with shaking at 150 rpm. At 1, 2 and 4-hr, the blood samples are mixed thoroughly by pipetting and 50 μL is transferred into the corresponding wells of the sample collection plate. Blood is allowed to sit in the water for 2 minutes and then 400 μL of stop solution/well is added. The collection plate is sealed and vortexed at 1700 rpm for 3 minutes (VX-2500 Multi-Tube Vortexer, VWR International, Radnor, PA), and samples are then centrifuged in the collection plate at 3500 rpm for 10 minutes (Allegra X-14R Centrifuge Beckman Coulter, Indianapolis, IN). 100 μL of supernatant/well is transferred from the sample collection plate into the corresponding wells of the analysis plate. The final plate is vortexed at 1700 rpm for 1 minute and analyze samples by LC-MS/MS. The peak area ratio of the 1, 2, and 4 hr samples relative to T=0 is used to determine the percent remaining. The natural log of the percent remaining versus time is used determine a slope to calculate the compounds half-life in blood (t1/2=0.693/slope).

[2] = tested on: KRAS_G12C pERK in MIA PaCa-2 cells; test: Whole Blood pERK1/2 HTRF assay (KRAS_G12C WB pERK assay); format: cell-based, human; settings: compound in whole blood, 4 hours, read-out: G12C_WB_pERK
Method: MIA PaCa-2 cells (KRAS G12C; ATCC® CRL-1420), HPAF-II (KRAS G12D; ATCC® CRL-1997) and YAPC (KRAS G12V; DSMZ ACC382) are maintained in RPMI 1640 with 10% FBS (Gibco/Life Technologies). For MIA PaCa-2 assay, cells are seeded into 96 well tissue culture plates (Corning #3596) at 25000 cells per well in 100 uL media and cultured for 2 days at 37° C., 5% CO2 before the assay. For HPAF-II and YAPC assay, cells are seeded in 96 well tissue culture plates at 50000 cells per well in 100 uL media and cultured for 1 day before the assay. Whole Blood are added to the 1 uL dots of compounds (prepared in DMSO) in 96 well plates and mixed gently by pipetting up and down so that the concentration of the compound in blood is 1× of desired concentration, in 0.5% DMSO. The media is aspirated from the cells and 50 uL per well of whole blood with test compound is added and incubated for 4 hours for MIA PaCa and YAPC assay; or 2 hours for HPAF-II assay, respectively at 37° C., 5% CO2. After dumping the blood, the plates are gently washed twice by adding PBS to the side of the wells and dumping the PBS from the plate onto a paper towel, tapping the plate to drain well. Fifty ul/well of 1× lysis buffer #1 (Cisbio) with blocking reagent (Cisbio) and Benzonase nuclease (Sigma Cat #E1014-5KU, 1:10000 final concentration) is then added and incubated at room temperature for 30 minutes with shaking (250 rpm). Following lysis, 16 uL of lysate is transferred into 384-well Greiner small volume white plate using an Assist Plus (Integra Biosciences, NH). Four uL of 1:1 mixture of anti Phospho-ERK 1/2 d2 and anti Phospho-ERK 1/2 Cryptate (Cisbio) is added to the wells using the Assist Plus and incubated at room temperature overnight in the dark. Plates are read on the Pherastar plate reader at 665 nm and 620 nm wavelengths. Data are analyzed in Genedata Screener using SmartFit for IC50 values.

[3] = tested on: KRAS_G12C pERK; test: Cellular pERK HTRF assay (KRAS_G12C pERK assay); format: cell-based, human; settings: KRAS G12C cells, 4 hours incubation with compound, read-out: G12C_pERK
Method: MIA PaCa-2 (KRAS G12C; ATCC® CRL-1420), NCI-H358 (KRAS G12C; ATCC® CRL-5807), A427 (KRAS G12D; ATCC® HTB53), HPAFII (KRAS G12D; ATCC® CRL-1997), YAPC (KRAS G12V; DSMZ ACC382), SW480 (KRAS G12V; ATCC® CRL-228) and NCI-H838 (KRAS WT; ATCC® CRL-5844) cells are purchased from ATCC and maintained in RPMI 1640 media supplemented with 10% FBS (Gibco/Life Technologies). The cells are plated at 5000 cells per well (8 uL) into Greiner 384-well low volume, flat-bottom, and tissue culture treated white plates and incubated overnight at […], 5% CO2. The next morning, test compound stock solutions are diluted in media at 3× the final concentration and 4 uL are added to the cells, with a final concentration of 0.1% of DMSO. The cells are incubated with the test compounds for 4 hours (G12C and G12V) or 2 hrs (G12D) at 37° C., 5% CO2. Four uL of 4× lysis buffer with blocking reagent (Cisbio) are added to each well and plates are rotated gently (300 rpm) for 30 minutes at room temperature. Four uL per well of Cisbio anti Phospho-ERK 1/2 d2 is mixed with anti Phospho-ERK 1/2 Cryptate (1:1), and added to each well, incubated overnight in the dark at room temperature. Plates are read on the Pherastar plate reader at 665 nm and 620 nm wavelengths. Data are analyzed in Genedata Screener using SmartFit for IC50 values.

[4] = molecular target: KRAS G12C (Homo sapiens, UniProt P01116, G12C); test: GDP-GTP exchange assay (KRAS_G12C exchange assay); format: biochemical; settings: bodipy-loaded KRAS G12C 2.5 nM, SOS1 150 nM, 2 hours pre-incubation with inhibitor; read-out: G12C_exchange
Method: The inhibitor potency of the exemplified compounds was determined in a fluorescence based guanine nucleotide exchange assay, which measures the exchange of bodipy-GDP (fluorescently labeled GDP) for GppNHp (Non-hydrolyzable GTP analog) to generate the active state of KRAS in the presence of SOS1 (guanine nucleotide exchange factor). Inhibitors were serially diluted in DMSO and a volume of 0.1 μL was transferred to the wells of a black low volume 384-well plate. 5 μL/well volume of bodipy-loaded KRAS G12C diluted to 5 nM in assay buffer (25 mM Hepes pH 7.5, 50 mM NaCl, 10 mM MgCl2 and 0.01% Brij-35) was added to the plate and pre-incubated with inhibitor for 2 hours at ambient temperature. Appropriate controls (enzyme with no inhibitor or with a G12C inhibitor (AMG-510)) were included on the plate. The exchange was initiated by the addition of a 5 μL/well volume containing 1 mM GppNHp and 300 nM SOS1 in assay buffer. The 10 μL/well reaction concentration of the bodipy-loaded KRAS G12C, GppNHp, and SOS1 were 2.5 nM, 500 uM, and 150 nM, respectively. The reaction plates were incubated at ambient temperature for 2 hours, a time estimated for complete GDP-GTP exchange in the absence of inhibitor. For the KRAS G12D and G12V mutants, similar guanine nucleotide exchange assays were used with 2.5 nM as final concentration for the bodipy loaded KRAS proteins and with 4 hours and 3 hours incubation after adding GppNHp-SOS1 mixture for G12D and G12V respectively. A cyclic peptide described to selectively bind G12D mutant (Sakamoto et al., BBRC 484.3 (2017), 605-611) or internal compounds with confirmed binding were used as positive controls in the assay plates. Fluorescence intensities were measured on a PheraStar plate reader instrument (BMG Labtech) with excitation at 485 nm and emission at 520 nm.
Either GraphPad prism or Genedata Screener SmartFit was used to analyze the data. The IC50 values were derived by fitting the data to a four parameter logistic equation producing a sigmoidal dose-response curve with a variable Hill coefficient.

KRAS G12C, sequence (P01116 1-188 isoform P01116-2 G12C): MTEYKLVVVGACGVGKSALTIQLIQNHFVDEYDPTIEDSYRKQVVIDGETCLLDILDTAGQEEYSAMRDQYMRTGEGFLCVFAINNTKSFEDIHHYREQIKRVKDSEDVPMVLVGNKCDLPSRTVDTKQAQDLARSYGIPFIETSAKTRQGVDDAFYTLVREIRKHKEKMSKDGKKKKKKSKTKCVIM

SMILES | Human whole blood stability at 4 hr [1] | IC50 ([2]; Homo sapiens) | IC50 ([3]; Homo sapiens, 4 h) | IC50 [4] | IC50 [3] | IC50 [2]
COc1c(Cl)cccc1-c1c(C(F)(F)F)cc2c(nc(N3CC(C)(N(C)C)C3)c3nnn([C@H]4CCN(C(=O)/C=C/CF)[C@H](CC#N)C4)c32)c1F (single isomer, unassigned) [Example 3a] | †† (WBS >70% but ≤90%) | 100 to 1000 nM | ≤ 50 nM | ≤ 50 nM |  | 
C[C@H](Oc1nc2c(F)c(-c3ccc(F)c4cccnc34)c(C(F)(F)F)cc2c2c1nnn2[C@H]1CCN(C(=O)/C=C/CF)[C@H](CC#N)C1)[C@@H]1CCCN1C (single isomer, unassigned) [Example 4a] | ††† (WBS >90%) | ≤ 50 nM | ≤ 50 nM | ≤ 50 nM |  | 
C=CC(=O)N1CCC(n2nnc3c(O[C@@H](C)[C@@H]4CCCN4C)nc4c(F)c(-c5ccc(F)c6cccnc56)c(C(F)(F)F)cc4c32)CC1 (single isomer, unassigned) [Example 5a] | †† (WBS >70% but ≤90%) | 50 to 100 nM | ≤ 50 nM | ≤ 50 nM |  | 
C=CC(=O)N1CCC(n2nnc3c(O[C@@H](C)[C@@H]4CCCN4C)nc4c(F)c(-c5cccc6cccc(C#N)c56)c(C)cc4c32)CC1 (single isomer, unassigned) [Example 11b] | †† (WBS >70% but ≤90%) | ≤ 50 nM |  | ≤ 50 nM | ≤ 50 nM | 
C=CC(=O)N1CC[C@H](n2nnc3c(O[C@@H](C)[C@@H]4CCCN4C)nc4c(F)c(-c5cccc6cccc(C#N)c56)c(C)cc4c32)C[C@H]1C (single isomer, unassigned) [Example 14b] | ††† (WBS >90%) | ≤ 50 nM | ≤ 50 nM | ≤ 50 nM |  | 
C=C(F)C(=O)N1CC[C@H](n2nnc3c(N4CC(N(C)CC)C4)nc4c(F)c(-c5c(C)c(C)cc6[nH]ncc56)c(C)cc4c32)C[C@H]1CC#N (single isomer, unassigned) [Example 15a] | ††† (WBS >90%) | 50 to 100 nM | ≤ 50 nM | ≤ 50 nM |  | 
Cc1cc2c(nc(O[C@@H](C)[C@@H]3CCCN3C)c3nnn(C4CCN(C(=O)/C=C/CF)CC4)c32)c(F)c1-c1cccc2cccc(C#N)c12 (single isomer, unassigned) [Example 16b] | ††† (WBS >90%) | 50 to 100 nM |  | ≤ 50 nM | ≤ 50 nM | 
COC/C=C/C(=O)N1CC[C@H](n2nnc3c(N4CC(C)(N(C)C)C4)nc4c(Cl)c(-c5ccc(F)c6cccnc56)c(Cl)cc4c32)C[C@H]1CC#N (single isomer, unassigned) [Example 18a] | ††† (WBS >90%) | 100 to 1000 nM | ≤ 50 nM | ≤ 50 nM |  | 
CN(C)C1(C)CN(c2nc3c(Cl)c(-c4ccc(F)c5cccnc45)c(Cl)cc3c3c2nnn3[C@H]2CCN(C(=O)/C=C/CF)[C@H](CC#N)C2)C1 (single isomer, unassigned) [Example 19a] | †† (WBS >70% but ≤90%) | ≤ 50 nM | ≤ 50 nM | ≤ 50 nM |  | 
COC/C=C/C(=O)N1CC[C@H](n2nnc3c(N4CC(C)(N(C)C)C4)nc4c(F)c(-c5ccc(F)c6cccnc56)c(C(F)(F)F)cc4c32)C[C@H]1CC#N (single isomer, unassigned) [Example 20] | ††† (WBS >90%) | 100 to 1000 nM | ≤ 50 nM | ≤ 50 nM |  | 
COC/C=C/C(=O)N1CC[C@H](n2nnc3c(O[C@@H](C)[C@@H]4CCCN4C)nc4c(F)c(-c5cnc(C)c6ccccc56)c(C)cc4c32)C[C@H]1CC#N (single isomer, unassigned) [Example 26b] | †† (WBS >70% but ≤90%) |  |  | ≤ 50 nM | ≤ 50 nM | 50 to 100 nM
C=CC(=O)N1CC[C@H](n2nnc3c(O[C@@H](C)[C@@H]4CCCN4C)nc4c(F)c(-c5cccc6c5c(CC#N)nn6C)c(C)cc4c32)C[C@H]1C (single isomer, unassigned) [Example 28b] | †† (WBS >70% but ≤90%) | 50 to 100 nM | ≤ 50 nM | ≤ 50 nM |  | 
C=C(F)C(=O)N1CC[C@H](n2nnc3c(N4CC(C)(N(C)CC)C4)nc4c(F)c(-c5c(C)c(F)cc6[nH]ncc56)c(C)cc4c32)C[C@H]1CC#N (single isomer, unassigned) [Example 29] | ††† (WBS >90%) | 100 to 1000 nM | ≤ 50 nM | ≤ 50 nM |  | 
